This assay addresses T1, 3-phosphoshikimate 1-carboxyvinyltransferase (Escherichia coli K-12, UniProt P0A6D3).
T1 sequence (P0A6D3 whole entry): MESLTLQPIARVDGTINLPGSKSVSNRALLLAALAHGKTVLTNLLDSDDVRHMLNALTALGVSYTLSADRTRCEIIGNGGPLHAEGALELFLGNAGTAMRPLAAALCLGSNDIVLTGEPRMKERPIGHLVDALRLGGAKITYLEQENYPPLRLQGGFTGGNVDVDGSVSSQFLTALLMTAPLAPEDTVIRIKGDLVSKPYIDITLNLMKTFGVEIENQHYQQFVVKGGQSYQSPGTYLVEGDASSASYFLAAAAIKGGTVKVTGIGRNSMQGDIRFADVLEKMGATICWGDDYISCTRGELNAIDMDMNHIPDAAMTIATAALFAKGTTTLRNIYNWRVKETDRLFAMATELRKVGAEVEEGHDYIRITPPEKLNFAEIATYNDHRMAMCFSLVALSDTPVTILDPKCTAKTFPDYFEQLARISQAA
In words: The compound was tested for the inhibition of Escherichia coli 5-enolpyruvyl-shikimate-3-phosphate synthase (EPSP).

Where only a bound is given, the exact number is not on record here.

The values below come from ChEMBL document CHEMBL1127173, “EPSP synthase inhibitor deisgn III. Synthesis & evaluation of a new 5-oxamic acid analog of EPSP which incorporates a malonate ether as a 3-phosphate mimic” (Bioorg Med Chem Lett, 1993).

Take `O=C(O)C(=O)N[C@@H]1CC(C(=O)O)=C[C@@H](O)[C@H]1O`: the IC50 is above 10000 µM.

As for `N[C@@H]1CC(C(=O)O)=C[C@@H](OP(=O)(O)O)[C@H]1O`, the Ki is 90 µM. That is a double-digit micromolar value.

With `O=C(O)C(=O)N[C@@H]1CC(C(=O)O)=C[C@@H](OC(C(=O)O)C(=O)O)[C@H]1O`, the inhibition constant Ki worked out at 5.2 µM.

Regarding `O=C(O)CO[C@@H]1CC(C(=O)O)=C[C@@H](OP(=O)(O)O)[C@H]1O`, the affinity corresponds to a Ki of 1.5 µM.

The IC50 is the concentration that gives 50% inhibition. A lower IC50 goes with higher potency. One may read the Ki as the dissociation constant of the complex between target and ligand, obtained from inhibition or displacement. Higher therefore signals a looser hold on the target.
